Measurements: ChEMBL document CHEMBL5257100, “Discovery and development of benzene sulfonamide derivatives as anti-hepatic fibrosis agents” (Bioorg Med Chem Lett, 2023)
Activity calls are given as the source filed them. The calls are words filed in the database; no cut-off is given here.

Tests used:
AML12 = experiment: Cytotoxicity against mouse AML12 cells assessed as mortality rate at 1 to 30 uM incubated for 24 hrs by Sulfonyl Rhodamine B assay; assay type: toxicity, cell-based; details: aml12, 24 h, dose 1-30 µM
[1] = Anti-hepatic fibrosis activity in human LX2 cells assessed as inhibition of COL1A1 promoter activity at 25 micromol/L by luciferase reporter assay relative to control; assay type: functional; details: LX-2, dose 25 µmol/L
LX-2 [2] = experiment: Anti-hepatic fibrosis activity in human LX2 cells assessed as inhibition of TGFbeta1-induced COL1A1 protein expression at 3 uM incubated for 24 hrs by western blot analysis; assay type: functional, cell-based
LX-2 [3] = experiment: Anti-hepatic fibrosis activity in human LX2 cells assessed as inhibition of TGFbeta1-induced TIMP-1 protein expression at 3 uM incubated for 24 hrs by western blot analysis; assay type: functional, cell-based
[4] = Inhibition of JAK1/STAT1/STAT3 signaling pathway in human LX2 cells assessed as decrease in TGF-beta induced STAT3 phosphorylation level at 1 uM incubated for 24 hrs by Western blot analysis; assay type: cell-based
LX-2 [5] = experiment: Anti-hepatic fibrosis activity in human LX2 cells assessed as inhibition of TGFbeta1-induced COL1A1 protein expression at 1 uM incubated for 24 hrs by western blot analysis; assay type: functional, cell-based
LX-2 [6] = experiment: Anti-hepatic fibrosis activity in human LX2 cells assessed as inhibition of TGFbeta1-induced FN protein expression at 1 uM incubated for 24 hrs by western blot analysis; assay type: functional, cell-based
LX-2 [7] = experiment: Anti-hepatic fibrosis activity in human LX2 cells assessed as inhibition of TGFbeta1-induced alpha-SMA protein expression at 1 uM incubated for 24 hrs by western blot analysis; assay type: functional, cell-based
LX-2 [8] = experiment: Anti-hepatic fibrosis activity in human LX2 cells assessed as inhibition of TGFbeta1-induced TIMP-1 protein expression at 1 uM incubated for 24 hrs by western blot analysis; assay type: functional, cell-based
LX-2 [9] = experiment: Anti-hepatic fibrosis activity in human LX2 cells assessed as inhibition of TGF-beta1 induced intrinsic TGF-beta1 mRNA expression at 3 micromol/L incubated for 24 hrs by qPCR analysis; assay type: functional, cell-based; details: dose 3.0 µmol/L
LX-2 [10] = experiment: Anti-hepatic fibrosis activity in human LX2 cells assessed as inhibition of TGF-beta1 induced MMP-2 mRNA expression at 3 micromol/L incubated for 24 hrs by qPCR analysis; assay type: functional, cell-based; details: dose 3.0 µmol/L
[11] = Inhibition of JAK1/STAT1/STAT3 signaling pathway in human LX2 cells assessed as decrease in TGF-beta induced STAT1 phosphorylation level at 1 uM incubated for 24 hrs by Western blot analysis; assay type: cell-based
LX-2 [12] = experiment: Anti-hepatic fibrosis activity in human LX2 cells assessed as inhibition of TGF-beta1 induced COL1A1 mRNA expression at 3 micromol/L incubated for 24 hrs by qPCR analysis; assay type: functional, cell-based; details: dose 3.0 µmol/L
LX-2 [13] = experiment: Anti-hepatic fibrosis activity in human LX2 cells assessed as inhibition of TGFbeta1-induced alpha-SMA protein expression at 3 uM incubated for 24 hrs by western blot analysis; assay type: functional, cell-based
LX-2 [14] = experiment: Anti-hepatic fibrosis activity in human LX2 cells assessed as inhibition of TGFbeta1-induced FN protein expression at 3 uM incubated for 24 hrs by western blot analysis; assay type: functional, cell-based
[15] = Cytotoxicity against human LX2 cells assessed as mortality rate at 1 to 30 uM incubated for 24 hrs by Sulfonyl Rhodamine B assay; assay type: toxicity, cell-based; details: lx-2, 24 h, dose 1-30 µM
[16] = Inhibition of JAK1/STAT1/STAT3 signaling pathway in human LX2 cells assessed as decrease in TGF-beta induced JAK1 phosphorylation level at 1 uM incubated for 24 hrs by Western blot analysis; assay type: cell-based

SMILES | Activity (AML12) | inhibition at 25 µM [1] | inhibition (LX-2 [2]) | inhibition (LX-2 [3]) | inhibition [4] | inhibition (LX-2 [5]) | inhibition (LX-2 [6]) | inhibition (LX-2 [7]) | inhibition (LX-2 [8]) | inhibition (LX-2 [9]) | inhibition (LX-2 [10]) | inhibition [11] | inhibition (LX-2 [12]) | inhibition (LX-2 [13]) | inhibition (LX-2 [14]) | Activity [15] | inhibition [16]
O=C(Nc1ccccc1NS(=O)(=O)c1cccc([N+](=O)[O-])c1)c1cc(Cl)c(Cl)c(Cl)c1 | Non-Toxic | 61.7% | Active | Active | Active | Active | Active | Active | Active | Active | Active | Active | Active | Active | Active | Toxic | Active
O=C(Nc1ccccc1NS(=O)(=O)c1cccc(C(F)(F)F)c1)c1cc(Cl)c(Cl)c(Cl)c1 | Non-Toxic | 60.7% | – | – | Active | Active | Active | Active | Active | Active | Active | Active | Active | – | – | Non-Toxic | Active
O=C(Nc1ccccc1NS(=O)(=O)c1ccc([N+](=O)[O-])cc1)c1cc(Cl)c(Cl)c(Cl)c1 | Non-Toxic | 54.8% | Active | Active | Active | Active | Active | Active | Active | Active | Active | Active | Active | Active | Active | Non-Toxic | Active
O=C(Nc1cc(Cl)c(Cl)c(Cl)c1)c1ccccc1NS(=O)(=O)c1cccc([N+](=O)[O-])c1 | Non-Toxic | 35.9% | – | – | Active | – | – | – | – | – | – | Active | Active | – | – | Non-Toxic | Active
